Source: patent publication US20210179577A1, “AROMATIC SULFONAMIDE DERIVATIVES FOR THE TREATMENT OF ISCHEMIC STROKE” (Bayer Aktiengesellschaft, priority 2017, published 2021)
Where “and” joins values, the source holds several entries; their conditions need not be identical. Equal entries are not always repeated.

Experiments:
human P2X4 = molecular target: T1, human P2X4 (Homo sapiens, UniProt Q99571); test: Human P2X4 HEK Cell Electrophysiology Assay A (PatchLiner); format: cell-based; parameters: expressed in transfected cells; host or cells: HEK293; conditions: ATP 5 μM, -80 mV; read-out: Human P2X4 HEK Cells (PatchLiner Electrophysiology) avg IC50
T1 sequence (Q99571 1-388): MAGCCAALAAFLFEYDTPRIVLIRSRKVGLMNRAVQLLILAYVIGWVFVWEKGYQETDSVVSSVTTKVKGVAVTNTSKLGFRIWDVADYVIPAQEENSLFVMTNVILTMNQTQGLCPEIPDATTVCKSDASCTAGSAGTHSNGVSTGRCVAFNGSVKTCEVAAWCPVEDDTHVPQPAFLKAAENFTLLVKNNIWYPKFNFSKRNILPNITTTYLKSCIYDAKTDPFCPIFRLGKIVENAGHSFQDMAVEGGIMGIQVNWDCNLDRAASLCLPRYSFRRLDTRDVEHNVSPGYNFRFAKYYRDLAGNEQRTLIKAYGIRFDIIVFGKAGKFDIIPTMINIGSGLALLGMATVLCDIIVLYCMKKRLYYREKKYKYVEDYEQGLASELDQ
Procedure: HEK293 cells stably expressing human P2X4 were seeded in T75 cell culturing flasks at a density of 7*106 cells and incubated overnight. P2X4 function was assayed using the automated patch clamp platform PatchLiner (Nanion) in single hole mode. Composition of extracellular buffer was (in mM) NaCl 145, KCl 4, HEPES 10, CaCl2) 1, MgCl2 0.5, D-glucose monohydrate 10, pH=7.4. The intracellular buffer contained (in mM): CsF 135, EGTA 1, HEPES 10, NaCl 10, pH 7.2. On the day of the assay, cells were harvested using Accumax (Sigma) and were resuspended in extracellular buffer. The ligand agonist, adenosine 5′-trisphosphate (ATP, 5 μM) was added in a volume of 5 μL, directly washed off by extracellular buffer (40 μL). The cells were voltage clamped at −80 mV and ligand was applied every 5 min. for 20 min. Over this period the agonist response was stable and compounds were measured in single concentration per well mode. Compounds diluted in extracellular buffer (final assay DMSO concentration 0.3%) were added in a volume of 40 μL and allowed to incubate for 8 min at room temperature. The data was analyzed based on the decrease in peak current amplitude and normalized to the agonist control. Mean values were plotted in Excel XLFit to determine IC50 values, percentage of maximal inhibition and the Hill coefficients.

endogenous P2X4 channels = molecular target: T2, endogenous P2X4 channels (Homo sapiens, UniProt Q99571); test: Human Monocyte P2X4 Assay (FLIPR); format: cell-based; conditions: primary human monocytes, 3 μM BzATP, one value per donor; for IC50: read-out: Human P2X4 Monocytes (FLIPR Assay) IC50 for different donors; for Emax: read-out: Human P2X4 Monocytes (FLIPR Assay) Efficacy for different donors
T2 construct: measure calcium influx through endogenous P2X4 channels into primary human monocytes; endogenous in cells; host or cells: primary human monocytes isolated from donor PBMCs
T2 sequence (Q99571 1-388): T1 sequence (Q99571 1-388)
Procedure: The principle of the assay is to measure calcium influx through endogenous P2X4 channels into primary human monocytes, following activation by 2′,3′-O-(4-benzoyl-benzoyl)-ATP (Bz-ATP). Intracellular calcium concentration changes were measured with a Flipr™ (Molecular Devices) device using a calcium sensitive dye (Fluo-8). In primary monocytes P2X4 is located at the lysosome membrane, therefore exocytosis has to be triggered to expose P2X4 at the cellular membrane.
Human peripheral blood mononuclear cells (PBMCs) from anticoagulated blood (blood cells, BC) were isolated via density gradient centrifugation. Whole blood was diluted 1:3 with PBS. Samples of 30 mL were layered carefully on top of 15 mL Biocoll (BIOCHROM) in 50 mL centrifuge tubes (Falcon). Tubes were centrifuged at 914×g for 25 min at RT without brake. The PBMC layer was removed with a 10 mL pipette and transferred into tubes with ice-cold PBS in a total volume of 50 mL. Cells were washed twice by pelleting at 300×g at 4° C., for 10 min and for 5 min respectively. PBMCs were re-suspended in 10 mL medium (X-vivo, Biozym Scientific) and counted in a Neubauer chamber.
Monocytes were isolated by negative selection using the Monocyte isolation kit II from Miltenyi (#130-091-153) according to the instructions. Isolation should be done fast and cells and solutions should be kept on ice at any time. PBMCs in batches of 10exp8 cells were pelleted (300×g, 10 min) and re-suspended with 300 μL MACS buffer in a 50 mL Falcon tube. FcR Blocking reagent (100 μl) and Biotin-Ab (100 μl) were added, mixed and incubated on ice for 10 min. MACS buffer (300 μL) and anti-Biotin Micro-beads (100 μL) were added, mixed and incubated on ice for 15 min. Cells were washed by pelleting (300×g for 10 min) and re-suspended in 500 μL MACS buffer. For each batch one separation column was placed in the MACS separator and rinsed with 3 mL MACS buffer. The cell suspension was added to the column, followed by 3×3 mL MACS buffer for washing, and the eluent containing the monocytes was collected. Cells were pelleted (300×g for 10 min), re-suspended in X-vivo medium and counted. Monocytes were seeded into fibronectin-coated micro-plates (384-well, black, flat transparent bottom; Corning #3848) at a density of 30,000 cells/well in 50 μL, and cultivated over night (37° C., 5% CO2).
Test substances were dissolved in 100% DMSO at a stock concentration of 10 mM and stored at −20° C. in aliquots. Serial dilutions (2×) were prepared in DMSO and diluted 500× with assay buffer to generate the antagonist plate. In the Flipr measurement, 10 μL per well were transferred (4× dilution) and a final top concentrations of 5 μM and 0.05% DMSO were obtained in the assay. Agonist BzATP was stored at 10 mM in aliquots and diluted to an intermediate concentration of 15 μM to generate the agonist plate. In the Flipr measurement, 10 μL per well were transferred (5× dilution) so that a final assay concentration of 3 μM was obtained.
For the experiment, the medium of the cell plate was discarded manually and 70 μL/well loading buffer was added and incubated for 1 h (37° C., 5% CO2). Loading buffer contained HBSS (w/o calcium/magnesium), 10 mM Hepes pH 7.4, 5 μM Fluo-8 (AM) (Tebu-bio) and 50 mM methylamine (Sigma) to trigger exocytosis. Loading buffer was discarded manually and 30 μL/well low-calcium assay buffer (5 mM KCl, 145 mM NaCl, 0.5 mM CaCl2), 13 mM glucose, 10 mM Hepes pH 7.4) was added. The antagonist plate was transferred (10 μL/well) and after 15 min at RT the agonist plate (10 μL/well) was transferred.
Agonist addition was recorded for 240 seconds after a 10 second baseline. For analysis, a baseline correction was applied, and the maximum of the curve was extracted. Data were normalized towards 0% inhibition (signal at 3 μM BzATP) and 100% inhibition (absence of BzATP stimulation) and fitted with a four-parameter sigmoidal inhibition curve using Prism Graph Pad to obtain IC50 values.

Row | IC50 (human P2X4) [nM] | IC50 (endogenous P2X4 channels) | Emax (endogenous P2X4 channels) [%] | Compound
1 | 111 | 59 nM (2×) and 21 nM and 76 nM and 45 nM |  | NS(=O)(=O)c1cc(NC(=O)Cc2ccccc2Cl)ccc1-n1cc(C(F)(F)F)cn1 [Example 19, 2-(2-Chlorophenyl)-N-{3-sulfamoyl-4-[4-(trifluoromethyl)-1H-pyrazol-1-yl]phenyl}acetamide]
2 |  | 290 nM and 182 nM | 71 | NS(=O)(=O)c1cc(NC(=O)Cc2ccccc2Cl)ccc1-n1cc(F)cn1 [Example 26, 2-(2-Chlorophenyl)-N-[4-(4-fluoro-1H-pyrazol-1-yl)-3-sulfamoylphenyl]acetamide]
3 | 138 | 105 nM and 32 nM and 71 nM | 88 | N#Cc1cnn(-c2ccc(NC(=O)Cc3ccccc3Cl)cc2S(N)(=O)=O)c1 [Example 39, 2-(2-Chlorophenyl)-N-[4-(4-cyano-1H-pyrazol-1-yl)-3-sulfamoylphenyl]acetamide]
4 | 57 | 407 nM and 167 nM and 149 nM and 45 nM and 49 nM |  | NS(=O)(=O)c1cc(NC(=O)Cc2ccccc2Cl)ccc1-c1cnn(C(F)F)c1 [Example 326, 2-(2-Chlorophenyl)-N-{4-[1-(difluoromethyl)-1H-pyrazol-4-yl]-3-sulfamoylphenyl}acetamide]
5 | 320 | 263 nM and 251 nM and 434 nM and 93 nM and 50 nM and 207 nM |  | NS(=O)(=O)c1cc(NC(=O)Cc2ccccc2Cl)cnc1-n1cc(C(F)(F)F)cn1 [Example 380, 2-(2-Chlorophenyl)-N-{5-sulfamoyl-6-[4-(trifluoromethyl)-1H-pyrazol-1-yl]pyridin-3-yl}acetamide]
